{"source": "patent US11739350B2", "about": "(priority 2018, dated 2023)", "key": {"[1]": {"test_system": "patient-derived pancreatic cancer cell line (Patient 25)"}}}
{"substance": "GSK126", "values": [{"measurement": "Cell viability (%) relative to mock vehicle-treated cells (title: GSK126-induced cytotoxicity (%))", "setting": "786-0", "result": 111.99, "unit": "%"}, {"measurement": "Cell viability (%) relative to mock vehicle-treated cells (title: GSK126-induced cytotoxicity (%))", "setting": "BxPC3", "result": 96.07, "unit": "%"}, {"measurement": "Cell viability (%) relative to mock vehicle-treated cells (title: GSK126-induced cytotoxicity (%))", "setting": "4T1", "result": 113.57, "unit": "%"}, {"measurement": "Cell viability (%) relative to mock vehicle-treated cells (title: GSK126-induced cytotoxicity (%))", "setting": "[1]", "result": 80.82, "unit": "%"}, {"measurement": "Cell viability as a percentage of control (cells treated with mock EVs and vehicle control)", "setting": "786-0 cells", "result": "98.35 percentage of control"}, {"measurement": "Cell viability as a percentage of control (cells treated with mock EVs and vehicle control)", "setting": "BXPC3 cells", "result": "90.78 percentage of control"}, {"measurement": "Cell viability as a percentage of control (cells treated with mock EVs and vehicle control)", "setting": "Patient 25", "result": "64.14 percentage of control"}]}
